According to the NIST ThermoML archive (doi:10.1016/j.jct.2011.12.037):

Key:
[1] = for viscosity / mass density: 101.33 kPa, Liquid; for viscosity: Falling or rolling sphere viscometry; for mass density: Vibrating tube method; for Normal melting temperature: visual observation
[2] = Molar enthalpy of transition or fusion; conditions: Crystal; DSC

CCCCCCCC[n+]1cccc2ccccc21.O=S(=O)([N-]S(=O)(=O)C(F)(F)F)C(F)(F)F [1-octylquinolinium bis[(trifluoromethyl)sulfonyl]imide]
[1]
Conditions	Normal melting temperature [°C]	mass density [kg/m3]	viscosity [mPa·s]
323.15 K	–	1317.99	98.46
328.15 K	–	1313.82	77.27
333.15 K	–	1309.64	61.75
338.15 K	–	1305.46	50.06
343.15 K	–	1301.29	41.15
348.15 K	–	1297.14	34.22
353.15 K	–	1292.99	28.87
358.15 K	–	1288.85	24.7
363.15 K	–	1284.71	21.19
Crystal	48.2	–	–

[1], DTA
Conditions	Glass transition temperature [°C]	Triple point temperature [K]
Crystal	–	321.5
Glass	-52.3	–

Conditions	Molar enthalpy of transition or fusion [kcal/mol]
[2]	15

c1ccccc1 [benzene]
Conditions	Normal melting temperature [°C]
[1], Crystal	5.5
